Reference: PubChem BioAssay AID2060327 (Molecular Pharmacology Branch, DTP, NCI, 2025)

Tested on: PC-3 multi-cell spheroids, viability
Assay: Anticancer human tumor PC-3 cell line growth inhibition [IpAb];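 further: spheroids exposed to compounds for 7 days before readout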;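 on viability, T/C: 100% = DMSO vehicle control wells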
Conditions: for IC50: curve of first compound; for viability, T/C: stronger effect = lower value
Method in brief: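 Multi-cell spheroids of 60% tumour cells, 25% HUVEC and 15% MSC in ultra-low-attachment U-bottom wells, treated with agents combined with ipatasertib or abemaciclib. Half-log ranges top out near clinical Cmax, or 10 microM when Cmax is unknown.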

[1] = second compound 0.1 µM, first compound 0.00316 µM
[2] = second compound 0.1 µM, first compound 0.01 µM
[3] = second compound 0.1 µM, first compound 0.0316 µM
[4] = second compound 0.1 µM, first compound 0.1 µM
[5] = second compound 0.316 µM, first compound 0.00316 µM
[6] = second compound 0.316 µM, first compound 0.01 µM
[7] = second compound 0.316 µM, first compound 0.0316 µM
[8] = second compound 0.316 µM, first compound 0.1 µM
[9] = second compound 1 µM, first compound 0.00316 µM
[10] = second compound 1 µM, first compound 0.01 µM
[11] = second compound 1 µM, first compound 0.0316 µM
[12] = second compound 1 µM, first compound 0.1 µM

## CC(C)n1nc(-c2ccc3oc(N)nc3c2)c2c(N)ncnc21 + CC(C)NCC(C(=O)N1CCN(c2ncnc3c2C(C)CC3O)CC1)c1ccc(Cl)cc1
Second compound 0.1 µM
  IC50: 1.3 nM
Second compound 0.316 µM
  IC50: < 0.316 nM
Second compound 1 µM
  IC50: < 0.316 nM
Second compound 3.16 µM
  IC50: < 0.316 nM
Second compound 10 µM
  IC50: < 0.316 nM
Second compound 0.1 µM, first compound 0.000316 µM
  viability, T/C: 63%
Second compound 0.1 µM, first compound 0.001 µM
  viability, T/C: 52.6%
[1]
  viability, T/C: 38.1%
[2]
  viability, T/C: 20.2%
[3]
  viability, T/C: 10.4%
[4]
  viability, T/C: 10%
Second compound 0.316 µM, first compound 0.000316 µM
  viability, T/C: 37.3%
Second compound 0.316 µM, first compound 0.001 µM
  viability, T/C: 32.8%
[5]
  viability, T/C: 18.4%
[6]
  viability, T/C: 11.8%
[7]
  viability, T/C: 7.3%
[8]
  viability, T/C: 6.67%
Second compound 1 µM, first compound 0.000316 µM
  viability, T/C: 20%
Second compound 1 µM, first compound 0.001 µM
  viability, T/C: 14.8%
[9]
  viability, T/C: 9.96%
[10]
  viability, T/C: 7.81%
[11]
  viability, T/C: 5.46%
[12]
  viability, T/C: 4.64%
Second compound 3.16 µM, first compound 0.000316 µM
  viability, T/C: 12%
Second compound 3.16 µM, first compound 0.001 µM
  viability, T/C: 10.3%
Second compound 3.16 µM, first compound 0.00316 µM
  viability, T/C: 8.27%
Second compound 3.16 µM, first compound 0.01 µM
  viability, T/C: 5.41%
Second compound 3.16 µM, first compound 0.0316 µM
  viability, T/C: 3.69%
Second compound 3.16 µM, first compound 0.1 µM
  viability, T/C: 4.13%
Second compound 10 µM, first compound 0.000316 µM
  viability, T/C: 12%
Second compound 10 µM, first compound 0.001 µM
  viability, T/C: 10.2%
Second compound 10 µM, first compound 0.00316 µM
  viability, T/C: 7.33%
Second compound 10 µM, first compound 0.01 µM
  viability, T/C: 3.83%
Second compound 10 µM, first compound 0.0316 µM
  viability, T/C: 2.74%
Second compound 10 µM, first compound 0.1 µM
  viability, T/C: 2.74%

## COc1c(OCCCN2CCOCC2)ccc2c3n(c(=NC(=O)c4cnc(N)nc4)nc12)CCN3 + CCN1CCN(Cc2ccc(Nc3ncc(F)c(-c4cc(F)c5nc(C)n(C(C)C)c5c4)n3)nc2)CC1
Second compound 0.01 µM
  IC50: 94.5 nM
Second compound 0.0316 µM
  IC50: 90.8 nM
Second compound 0.1 µM
  IC50: 86.5 nM
Second compound 0.316 µM
  IC50: 78.3 nM
Second compound 1 µM
  IC50: 80.6 nM
Second compound 0.01 µM, first compound 0.00316 µM
  viability, T/C: 89.5%
Second compound 0.01 µM, first compound 0.01 µM
  viability, T/C: 99.3%
Second compound 0.01 µM, first compound 0.0316 µM
  viability, T/C: 140%
Second compound 0.01 µM, first compound 0.1 µM
  viability, T/C: 47%
Second compound 0.01 µM, first compound 0.316 µM
  viability, T/C: 13.3%
Second compound 0.01 µM, first compound 1 µM
  viability, T/C: 8.39%
Second compound 0.0316 µM, first compound 0.00316 µM
  viability, T/C: 109%
Second compound 0.0316 µM, first compound 0.01 µM
  viability, T/C: 121%
Second compound 0.0316 µM, first compound 0.0316 µM
  viability, T/C: 142%
Second compound 0.0316 µM, first compound 0.1 µM
  viability, T/C: 43.2%
Second compound 0.0316 µM, first compound 0.316 µM
  viability, T/C: 11%
Second compound 0.0316 µM, first compound 1 µM
  viability, T/C: 8.82%
[1]
  viability, T/C: 156%
[2]
  viability, T/C: 161%
[3]
  viability, T/C: 140%
[4]
  viability, T/C: 37%
Second compound 0.1 µM, first compound 0.316 µM
  viability, T/C: 12.8%
Second compound 0.1 µM, first compound 1 µM
  viability, T/C: 9.54%
[5]
  viability, T/C: 174%
[6]
  viability, T/C: 170%
[7]
  viability, T/C: 111%
[8]
  viability, T/C: 34.5%
Second compound 0.316 µM, first compound 0.316 µM
  viability, T/C: 14.8%
Second compound 0.316 µM, first compound 1 µM
  viability, T/C: 13.3%
[9]
  viability, T/C: 173%
[10]
  viability, T/C: 171%
[11]
  viability, T/C: 104%
[12]
  viability, T/C: 40.4%
Second compound 1 µM, first compound 0.316 µM
  viability, T/C: 25%
Second compound 1 µM, first compound 1 µM
  viability, T/C: 28.6%
